According to patent US10322131B2, “Hydroxyacid derivatives, a process for their preparation and pharmaceutical compositions containing them” (LES LABORATOIRES SERVIER, priority 2015, dated 2019):
Like-named read-outs stand apart in the source and are kept apart here.

Columns and labels:
Mcl-1 protein = Mcl-1 protein (Homo sapiens, UniProt Q07820); experiment: Inhibition of Mcl-1 by the fluorescence polarisation technique; type: binding
Protocol: The relative binding potency of each compound was determined via Fluorescence Polarisation (FP). The method utilised a Fluorescein labelled ligand (Fluorescein-βAla-Ahx-A-REIGAQLRRMADDLNAQY-OH; mw 2,765) which binds to the Mcl-1 protein (such that Mcl-1 corresponds to the UniProtKB® primary accession number: Q07820) leading to an increased anisotropy measured in milli-polarisation (mP) units using a reader. The addition of a compound which binds competitively to the same site as the ligand will result in a greater proportion of unbound ligand in the system indicated by a decrease in mP units.
An 11 point serial dilution of each compound was prepared in DMSO and 2 μl transferred into flat bottomed, low binding, 384-well plate (final DMSO concentration 5%). 38 μl of buffer (10 mM 4-(2-hydroxyethyl)-1-piperazineethanesulfonic acid [HEPES], 150 mM NaCl, 0.05% Tween 20, pH 7.4), containing the Fluorescein labelled ligand (final concentration 1 nM) and Mcl-1 protein (final concentration 5 nM) was then added.
Assay plates were incubated ˜2 hours at r.t. before FP was measured on a Biomek Synergy2 reader (Ex. 528 nm, Em. 640 nm, Cut off 510 nm) and mP units calculated. The binding of increasing doses of test compound was expressed as a percentage reduction in mP compared to a window established between ‘5% DMSO only’ and ‘100% inhibition’ controls. 11-point dose response curves were plotted with XL-Fit software using a 4-Parameter Logistic Model (Sigmoidal Dose-Response Model) and the inhibitory concentrations that gave a 50% reduction in mP (IC50) were determined.

H929 cells = experiment: In vitro cytotoxicity (MTT) on H929 multiple myeloma tumour line; type: cell-based; settings: Microculture Tetrazolium Assay
Protocol: The cytotoxicity studies were carried out on the H929 multiple myeloma tumour line.
The cells are distributed onto microplates and exposed to the test compounds for 48 hours.
The cell viability is then quantified by a colorimetric assay, the Microculture Tetrazolium Assay (Cancer Res., 1987, 47, 939-942).

[1] = fluorescence polarisation test, Fluorescein labelled ligand 1 nM, Mcl-1 protein 5 nM, ~2 hours at r.t., read-out: IC50 (M) Mcl-1 FP
[2] = Homo sapiens, NCI-H929, exposed 48 hours

Sequence of Mcl-1 protein (Q07820 whole entry): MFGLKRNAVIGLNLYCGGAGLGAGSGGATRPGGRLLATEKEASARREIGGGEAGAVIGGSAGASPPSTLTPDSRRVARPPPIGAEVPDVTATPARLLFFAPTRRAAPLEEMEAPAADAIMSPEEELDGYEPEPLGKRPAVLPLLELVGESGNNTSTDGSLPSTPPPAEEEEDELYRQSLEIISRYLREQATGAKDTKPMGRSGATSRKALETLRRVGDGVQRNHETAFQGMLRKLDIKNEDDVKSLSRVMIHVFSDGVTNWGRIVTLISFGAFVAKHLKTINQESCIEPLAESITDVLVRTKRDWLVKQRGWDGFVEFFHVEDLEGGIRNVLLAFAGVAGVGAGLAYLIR

| IC50 (Mcl-1 protein; [1]) | Compound | IC50 (H929 cells; [2]) | IC50 (H929 cells; exposed 48 hours) | IC50 (Mcl-1 protein) |
| --- | --- | --- | --- | --- |
| 4.5e-09 M | Cc1c(-c2c(-c3ccc(F)cc3)sc3ncnc(OC(Cc4ccccc4OCc4ccnc(-c5cccc(OCCO)c5)n4)C(=O)O)c23)ccc(OCCN2CCN(C)CC2)c1Cl [Example 30, (2R)-2-{[(5Sa)-5-{3-chloro-2-methyl-4-[2-(4-methylpiperazin-1-yl)ethoxy]phenyl}-6-(4-fluorophenyl)thieno[2,3-d]pyrimidin-4-yl]oxy}-3-[2-({2-[3-(2-hydroxyethoxy)phenyl]pyrimidin-4-yl-}methoxy)phenyl]propanoic acid] | 3.6 nM |  |  |
| 4.05e-09 M | Cc1c(-c2c(-c3ccc(F)cc3)sc3ncnc(OC(Cc4ccccc4OCc4ccnc(-c5cccc(OCC(O)CO)c5)n4)C(=O)O)c23)ccc(OCCN2CCN(C)CC2)c1Cl [Example 47, (2R)-2-{[(5Sa)-5-{3-chloro-2-methyl-4-[2-(4-methylpiperazin-1-yl)ethoxy]phenyl}-6-(4-fluorophenyl)thieno[2,3-d]pyrimidin-4-yl]oxy}-3-[2-({2-[3-(2,3-dihydroxypropoxy)phenyl]pyrimidin-4-yl}methoxy)phenyl]propanoic acid] | 18.2 nM |  |  |
| 5.1e-09 M | COCC(COC)Oc1cccc(-c2nccc(COc3ccccc3CC(Oc3ncnc4sc(-c5ccc(F)cc5)c(-c5ccc(OCCN6CCN(C)CC6)c(Cl)c5C)c34)C(=O)O)n2)c1 [Example 13, (2R)-2-{[(5Sa)-5-{3-chloro-2-methyl-4-[2-(4-methylpiperazin-1-yl)ethoxy]phenyl}-6-(4fluorophenyl)thieno[2,3-d]pyrimidin-4-yl]oxy}-3-{2-[(2-{3-[(1,3-dimethoxypropan-2-yl)oxy]phenyl}pyrimidin-4-yl)methoxy]phenyl}propanoic acid] | 3.59 nM |  |  |
| 1.53e-08 M | Cc1c(-c2c(-c3ccc(F)cc3)sc3ncnc(OC(Cc4ccccc4OCc4ccnc(-c5ccc(OCCOCCO)cc5)n4)C(=O)O)c23)ccc(OCCN2CCN(C)CC2)c1Cl [Example 32, (2R)-2-{[(5Sa)-5-{3-chloro-2-methyl-4-[2-(4-methylpiperazin-1-yl)ethoxy]phenyl}-6-(4-fluorophenl)thieno[2,3d]-pyrimidin-4-yl]oxy}-3-{2-[(2-{4-[2-(2-hydroxyethoxy)ethoxy]phenyl}pyrimidin-4-yl)methoxy]phenyl}propanoic acid] | 1.68 nM |  |  |
| 4.65e-09 M | Cc1c(-c2c(-c3ccc(F)cc3)sc3ncnc(OC(Cc4ccccc4OCc4ccnc(-c5cccc(COC(=O)NCCOCCOCCOCCO)c5)n4)C(=O)O)c23)ccc(OCCN2CCN(C)CC2)c1Cl [Example 36, (2R)-2-{[(5Sa)-5-{3-chloro-2-methyl-4-[2-(4-methylpiperazin-1-yl)ethoxy]phenyl}-6-(4-fluorophenyl)thieno[2,3-d]pyrimidin-4-yl]oxy}-3-[2-({2-[3-(15-hydroxy-3-oxo-2,7,10,13-tetraoxa-4-azapentadec-1-yl)phenyl]pyrimidin-4-yl}methoxy)phenyl]propanoic acid] | 75.9 nM |  |  |
| 3.75e-09 M | COCCOCCOc1cccc(-c2nccc(COc3ccccc3CC(Oc3ncnc4sc(-c5ccc(F)cc5)c(-c5ccc(OCCN6CCN(C)CC6)c(Cl)c5C)c34)C(=O)O)n2)c1 [Example 40, (2R)-2-{[(5Sa)-5-{3-chloro-2-methyl-4-[2-(4-methylpiperazin-1-yl)ethoxy]phenyl}-6-(4-fluorophenyl)thieno[2,3-d]pyrimidin-4-yl]oxy}-3-{2-[(2-{3-[2-(2-methoxyethoxy)ethoxy]phenyl}pyrimidin-4-yl)methoxy]phenyl}propanoic acid] | 6.15 nM |  |  |
| 3.05e-09 M | Cc1c(-c2c(-c3ccc(F)cc3)sc3ncnc(OC(Cc4ccccc4OCc4ccnc(-c5cccc(OCCOCCO)c5)n4)C(=O)O)c23)ccc(OCCN2CCN(C)CC2)c1Cl [Example 39, (2R)-2-{[(5Sa)-5-{3-chloro-2-methyl-4-[2-(4-methylpiperazin-1-yl)ethoxy]phenyl}-6-(4-fluorophenyl)thieno[2,3-d]pyrimidin-4-yl]oxy}-3-{2-[(2-{3-[2-(2-hydroxyethoxy)ethoxy]phenyl}pyrimidin-4-yl)methoxy]phenyl}propanoic acid] | 3.25 nM |  |  |
| 4.25e-09 M | Cc1c(-c2c(-c3ccc(F)cc3)sc3ncnc(OC(Cc4ccccc4OCc4ccnc(-c5cccc(COCCO)c5)n4)C(=O)O)c23)ccc(OCCN2CCN(C)CC2)c1Cl [Example 12, (2R)-2-{[(5Sa)-5-{3-chloro-2-methyl-4-[2-(4-methylpiperazin-1-yl(ethoxy]phenyl}-6-(4-fluorophenyl)thieno[2,3-d]pyrimidin-4-yl]oxy}-3-{2-[(2-{3-[(2-hydroxyethoxy)methyl]phenyl}pyrimidin-4-yl)methoxy]phenyl}propanoic acid] | 3.82 nM |  |  |

Second part, the molecule before the results:

| Compound | IC50 (Mcl-1 protein; [1]) | IC50 (H929 cells; [2]) | IC50 (H929 cells; exposed 48 hours) | IC50 (Mcl-1 protein) |
| --- | --- | --- | --- | --- |
| Cc1c(-c2c(-c3ccc(F)cc3)sc3ncnc(OC(Cc4ccccc4OCc4ccnc(-c5ccccc5OCC5COC(C)(C)O5)n4)C(=O)O)c23)ccc(OCCN2CCN(C)CC2)c1Cl [Example 5, (2R)-2-{[(5Sa)-5-{3-chloro-2-methyl-4-[2-(4-methylpiperazin-1-yl)ethoxyl]phenyl}-6-(4-fluorophenyl)thieno[2,3-d]pyrimidin-4-yl]oxy}-3-{2-[(2-{2-[(2,2-dimethyl-1,3-dioxolan-4-yl)methoxyl]phenyl}pyrimidin-4-yl)methoxy]phenyl}propanoic acid] | 3.7e-09 M | 1.65 nM |  |  |
| COC1OC(COc2cccc(-c3nccc(COc4ccccc4CC(Oc4ncnc5sc(-c6ccc(F)cc6)c(-c6ccc(OCCN7CCN(C)CC7)c(Cl)c6C)c45)C(=O)O)n3)c2)C(O)C(O)C1O [Example 16, methyl 6-O-{3-[4-({2-[(2R)-2-carboxy-2-{[(5Sa)-5-{3-chloro-2-methyl-4-[2-(4-methylpiperazin-1-yl)ethoxy]phenyl}-6-(4-flurophenyl)thieno[2,3-d]pyrimidin-4-yl]oxy}ethyl]phenoxy}methyl)pyrimidin-2-yl]phenyl}-α-D-mannopyranoside] | 7.2e-09 M |  | 37.1 nM |  |
| COCCOCCOc1ccccc1-c1nccc(COc2ccccc2CC(Oc2ncnc3sc(-c4ccc(F)cc4)c(-c4ccc(OCCN5CCN(C)CC5)c(Cl)c4C)c23)C(=O)O)n1 [Example 6, (2R)-2-{[(5Sa)-5-{3-chloro-2-methyl-4-[2-(4-methylpiperazin-1-yl)ethoxy]phenyl}-6-(4-fluoropnhenyl)thieno[2,3-d]pyrimidin-4-yl]oxy}-3-{2-[(2-{2-[2-(2-methoxyethoxy)ethoxy]phenyl}pyrimidin-4-yl)methoxy]phenyl}propanoic acid] | 1.57e-08 M | 3.25 nM |  |  |
| Cc1c(-c2c(-c3ccc(F)cc3)sc3ncnc(O[C@H](Cc4ccccc4OCc4ccnc(-c5ccc(OCCN(C)C)cc5)n4)C(=O)O)c23)ccc(OCCN2CCN(C)CC2)c1Cl [Example 34, (2R)-2-{[(5Sa)-5-{3-chloro-2-methyl-4-[2-(4-methylpiperazin-1-yl)ethoxy]phenyl}-6-(4-flurophenyl)thieno[2,3-d]pyrimidin-4-yl]oxy}-3-{2-[(2-{4-[2-(dimethylamino)ethoxy]phenyl}pyrimidin-4-yl)methoxy]phenyl}propanoic acid] | 7.1e-09 M |  | 4.76 nM |  |
| Cc1c(-c2c(-c3ccc(F)cc3)sc3ncnc(OC(Cc4ccccc4OCc4ccnc(-c5cccc(OP(=O)(O)O)c5)n4)C(=O)O)c23)ccc(OCCN2CCN(C)CC2)c1Cl [Example 28, (2R)-2-{[(5Sa)-5-{3-chloro-2-methyl-4-[2-(4-methylpiperazin-1-yl)ethoxy]phenyl}-6-(4-fluorophenyl)thieno[2,3-d]pyrimidin-4-yl]oxy}-3-[2-({2-[3-(phosphonooxy)phenyl]pyrimidin-4-yl}methoxy)phenyl]propanoic acid] |  | 48.4 nM |  | 4.15e-09 M |
| Cc1c(-c2c(-c3ccc(F)cc3)sc3ncnc(OC(Cc4ccccc4OCc4ccnc(-c5cccc(COC(=O)N6CCOCCOCCOCCOCCOCC6)c5)n4)C(=O)O)c23)ccc(OCCN2CCN(C)CC2)c1Cl [Example 46, (2R)-2-{[(5Sa)-5-{3-chloro-2-methyl-4-[2-(4-methylpiperazin-1-yl)ethoxy]phenyl}-6-(4-fluorophenyl)thieno[2,3-d]pyrimidin-4-yl]oxy}-3-(2-{[2-(3-{[(1,4,7,10,13-pentaoxa-16-azacyclooctadecan-16-ylcarbonyl)oxy]methyl}phenyl)pyrimidin-4-yl]methoxy}phenyl)propanoic acid] | 2.55e-09 M | 23.4 nM |  |  |
| COCCOCCOc1ccc(-c2nccc(COc3ccccc3CC(Oc3ncnc4sc(-c5ccc(F)cc5)c(-c5ccc(OCCN6CCN(C)CC6)c(Cl)c5C)c34)C(=O)O)n2)cc1 [Example 31, (2R)-2-{[(5Sa)-5-{3-chloro-2-methyl-4-[2-(4-methylpiperazin-1-yl)ethoxy]phenyl}-6-(4-fluorophenyl)thieno[2,3-d]pyrimidin-4-yl]oxy}-3-{2-[(2-{4-[2-(2-methoxyethoxy)ethoxy]phenyl}pyrimidin-4-yl)methoxy]phenyl}propanoic acid] | 3.85e-09 M | 1.68 nM |  |  |
